Data published in ChEMBL document CHEMBL3885881, “DrugMatrix”.

Organism: Rattus norvegicus
Assay: DrugMatrix - Regimen: Daily Repeat
Format: toxicity, organism-based, Sprague-Dawley
Set-up: regimen Daily Repeat, gender Male, age 6-8 weeks
Conditions: in vivo, iv, vehicle 100 % SALINE; for ABSOLUTE BASOPHIL / ABSOLUTE EOSINOPHIL / ABSOLUTE LYMPHOCYTE / ABSOLUTE MONOCYTE / ABSOLUTE SEGMENTED NEUTROPHIL / BASOPHIL / EOSINOPHIL / ERYTHROCYTE COUNT / HEMATOCRIT / LEUKOCYTE COUNT / LYMPHOCYTE / MEAN CORPUSCULAR HEMOGLOBIN / MEAN CORPUSCULAR HEMOGLOBIN CONCENTRATION / MEAN CORPUSCULAR VOLUME / MONOCYTE / NEUTROPHIL / NUCLEATED RED BLOOD CELLS / PLATELET COUNT / HEMOGLOBIN: tissue Blood
[1] = 0 mg/kg, 72 h, dose level Control, time 3 day
[2] = 0 mg/kg, 72 h, tissue Plasma, dose level Control, time 3 day
[3] = 0 mg/kg, 120 h, dose level Control, time 5 day
[4] = 0 mg/kg, 120 h, tissue Plasma, dose level Control, time 5 day
[5] = 8 mg/kg, 72 h, dose level High, time 3 day
[6] = 8 mg/kg, 72 h, tissue Plasma, dose level High, time 3 day
[7] = 8 mg/kg, 120 h, dose level High, time 5 day
[8] = 8 mg/kg, 120 h, tissue Plasma, dose level High, time 5 day

In the case of OXALIPLATIN, the “ABSOLUTE BASOPHIL” value [1] is reported as 0 CELLS/uL, the “ABSOLUTE EOSINOPHIL” value [1] is reported as 0 CELLS/uL and the “ABSOLUTE LYMPHOCYTE” value [1] is reported as 7637.67 CELLS/uL. For the same sequence, the “ABSOLUTE MONOCYTE” value [1] was 67.83 CELLS/uL, the “ABSOLUTE SEGMENTED NEUTROPHIL” value [1] was 661.17 CELLS/uL and the BASOPHIL [1] was 0%. The EOSINOPHIL [1] was 0%, the “ERYTHROCYTE COUNT” value [1] was 5.38 x10E6/uL and the HEMATOCRIT [1] was 33.67%. For the same sequence, the “LEUKOCYTE COUNT” value [1] was 8.37 x10E3/uL, the LYMPHOCYTE [1] was 91.17% and the “MEAN CORPUSCULAR HEMOGLOBIN” value [1] was 23.95 pg. The “MEAN CORPUSCULAR HEMOGLOBIN CONCENTRATION” value [1] was 38.23 G/DL, the “MEAN CORPUSCULAR VOLUME” value [1] was 62.6 fL and the MONOCYTE [1] was 0.83%. The NEUTROPHIL [1] was 8%, the “NUCLEATED RED BLOOD CELLS” value [1] was 0.17 /100WBC and the “PLATELET COUNT” value [1] was 865 x10E3/uL. The “ALANINE AMINOTRANSFERASE” value [2] was 51.67 u/L, the “ALKALINE PHOSPHATASE” value [2] was 351.17 u/L and the “ASPARTATE AMINOTRANSFERASE” value [2] was 82.33 u/L. The “BLOOD UREA NITROGEN” value [2] was 15.17 mg/dL, the “CARBON DIOXIDE” value [2] was 34.5 mmol/L and the CHLORIDE [2] was 100 MEQ/L. For the same sequence, the CHOLESTEROL [2] was 80.33 mg/dL, the “CREATINE PHOSPHOKINASE” value [2] was 316.5 u/L and the CREATININE [2] was 0.17 mg/dL. The “LACTATE DEHYDROGENASE” value [2] was 105.67 u/L, the LIPASE [2] was 9.5 u/L and the PHOSPHORUS [2] was 10.87 mg/dL. The POTASSIUM [2] was 5.47 MEQ/L, the “TOTAL BILIRUBIN” value [2] was 0.2 mg/dL and the “TOTAL PROTEIN” value [2] was 5.83 G/DL. The “URIC ACID” value [2] was 0.83 mg/dL, the “ABSOLUTE BASOPHIL” value [3] was 0 CELLS/uL and the “ABSOLUTE EOSINOPHIL” value [3] was 0 CELLS/uL. For the same sequence, the “ABSOLUTE LYMPHOCYTE” value [3] was 6333.5 CELLS/uL, the “ABSOLUTE MONOCYTE” value [3] was 38.83 CELLS/uL and the “ABSOLUTE SEGMENTED NEUTROPHIL” value [3] was 661 CELLS/uL. For the same sequence, the BASOPHIL [3] was 0%, the EOSINOPHIL [3] was 0% and the “ERYTHROCYTE COUNT” value [3] was 5.44 x10E6/uL. For the same sequence, the HEMATOCRIT [3] was 34.17%, the HEMOGLOBIN [3] was 13.22 G/DL and the “LEUKOCYTE COUNT” value [3] was 7.03 x10E3/uL. For the same sequence, the LYMPHOCYTE [3] was 90.17%, the “MEAN CORPUSCULAR HEMOGLOBIN” value [3] was 24.38 pg and the “MEAN CORPUSCULAR HEMOGLOBIN CONCENTRATION” value [3] was 38.7 G/DL. For the same sequence, the “MEAN CORPUSCULAR VOLUME” value [3] was 62.95 fL, the MONOCYTE [3] was 0.5% and the “NUCLEATED RED BLOOD CELLS” value [3] was 0 /100WBC. For the same sequence, the “PLATELET COUNT” value [3] was 924.33 x10E3/uL, the “ALANINE AMINOTRANSFERASE” value [4] was 52.5 u/L and the “ALKALINE PHOSPHATASE” value [4] was 364.83 u/L. The “ASPARTATE AMINOTRANSFERASE” value [4] was 82.5 u/L, the “BLOOD UREA NITROGEN” value [4] was 17 mg/dL and the “CARBON DIOXIDE” value [4] was 32.33 mmol/L. The CHLORIDE [4] was 99.6 MEQ/L, the CHOLESTEROL [4] was 75.83 mg/dL and the “CREATINE PHOSPHOKINASE” value [4] was 419 u/L. It also gave a CREATININE [4] of 0.21 mg/dL, a GLUCOSE [4] of 155 mg/dL and an LIPASE [4] of 11.33 u/L. For the same sequence, the PHOSPHORUS [4] was 10.32 mg/dL, the POTASSIUM [4] was 5.37 MEQ/L and the “TOTAL BILIRUBIN” value [4] was 0.18 mg/dL. For the same sequence, the “TOTAL PROTEIN” value [4] was 5.98 G/DL, the “URIC ACID” value [4] was 0.62 mg/dL and the “ABSOLUTE BASOPHIL” value [5] was 0 CELLS/uL. The “ABSOLUTE EOSINOPHIL” value [5] was 0 CELLS/uL, the “ABSOLUTE LYMPHOCYTE” value [5] was 4377.33 CELLS/uL and the “ABSOLUTE MONOCYTE” value [5] was 16.67 CELLS/uL. The “ABSOLUTE SEGMENTED NEUTROPHIL” value [5] was 339.33 CELLS/uL, the BASOPHIL [5] was 0% and the EOSINOPHIL [5] was 0%. The “ERYTHROCYTE COUNT” value [5] was 5.41 x10E6/uL, the HEMATOCRIT [5] was 33.23% and the HEMOGLOBIN [5] was 12.83 G/DL. For the same sequence, the “LEUKOCYTE COUNT” value [5] was 4.73 x10E3/uL, the LYMPHOCYTE [5] was 92.67% and the “MEAN CORPUSCULAR HEMOGLOBIN CONCENTRATION” value [5] was 38.63 G/DL. For the same sequence, the MONOCYTE [5] was 0.33%, the NEUTROPHIL [5] was 7% and the “NUCLEATED RED BLOOD CELLS” value [5] was 0 /100WBC. For the same sequence, the “PLATELET COUNT” value [5] was 1068.33 x10E3/uL, the “ALANINE AMINOTRANSFERASE” value [6] was 44.67 u/L and the ALBUMIN [6] was 4.3 G/DL. The “ALKALINE PHOSPHATASE” value [6] was 356.33 u/L, the “ASPARTATE AMINOTRANSFERASE” value [6] was 77.33 u/L and the “BLOOD UREA NITROGEN” value [6] was 16.67 mg/dL. The “CARBON DIOXIDE” value [6] was 34.33 mmol/L, the CHLORIDE [6] was 99 MEQ/L and the CHOLESTEROL [6] was 76 mg/dL. The “CREATINE PHOSPHOKINASE” value [6] was 301 u/L, the CREATININE [6] was 0.12 mg/dL and the “LACTATE DEHYDROGENASE” value [6] was 153.67 u/L. The POTASSIUM [6] was 5.69 MEQ/L, the “TOTAL BILIRUBIN” value [6] was 0.2 mg/dL and the “TOTAL PROTEIN” value [6] was 6.2 G/DL. The “URIC ACID” value [6] was 0.67 mg/dL, the “ABSOLUTE BASOPHIL” value [7] was 0 CELLS/uL and the “ABSOLUTE EOSINOPHIL” value [7] was 0 CELLS/uL. The “ABSOLUTE LYMPHOCYTE” value [7] was 3427.33 CELLS/uL, the “ABSOLUTE MONOCYTE” value [7] was 20 CELLS/uL and the “ABSOLUTE SEGMENTED NEUTROPHIL” value [7] was 186 CELLS/uL. For the same sequence, the BASOPHIL [7] was 0%, the EOSINOPHIL [7] was 0% and the “ERYTHROCYTE COUNT” value [7] was 5.56 x10E6/uL. The HEMATOCRIT [7] was 33.2%, the HEMOGLOBIN [7] was 12.67 G/DL and the “LEUKOCYTE COUNT” value [7] was 3.63 x10E3/uL. For the same sequence, the LYMPHOCYTE [7] was 93.33%, the “MEAN CORPUSCULAR HEMOGLOBIN” value [7] was 22.77 pg and the “MEAN CORPUSCULAR HEMOGLOBIN CONCENTRATION” value [7] was 38.17 G/DL. The MONOCYTE [7] was 0.67%, the NEUTROPHIL [7] was 6% and the “NUCLEATED RED BLOOD CELLS” value [7] was 0.33 /100WBC. For the same sequence, the “PLATELET COUNT” value [7] was 976 x10E3/uL, the “ALANINE AMINOTRANSFERASE” value [8] was 50 u/L and the “ALKALINE PHOSPHATASE” value [8] was 285.67 u/L. The “ASPARTATE AMINOTRANSFERASE” value [8] was 73.67 u/L, the “BLOOD UREA NITROGEN” value [8] was 16.67 mg/dL and the “CARBON DIOXIDE” value [8] was 33.67 mmol/L. The CHLORIDE [8] was 98 MEQ/L, the CHOLESTEROL [8] was 68.33 mg/dL and the “CREATINE PHOSPHOKINASE” value [8] was 268.33 u/L. For the same sequence, the CREATININE [8] was 0.16 mg/dL, the GLUCOSE [8] was 141 mg/dL and the “LACTATE DEHYDROGENASE” value [8] was 86 u/L. The LIPASE [8] was 9 u/L, the PHOSPHORUS [8] was 9 mg/dL and the POTASSIUM [8] was 5.38 MEQ/L. For the same sequence, the “TOTAL BILIRUBIN” value [8] was 0.13 mg/dL, the “TOTAL PROTEIN” value [8] was 6.33 G/DL and the “URIC ACID” value [8] was 0.6 mg/dL.
